Reference: the NIST ThermoML archive (doi:10.1021/je030107c)
Several values for one entry are separate records, joined by “and”; a condition that tells them apart may be missing. Identical values can stand only once.

Legend:
[1] = 101.3 kPa, Liquid; for viscosity: Capillary tube (Ostwald / Ubbelohde) method; for speed of sound: Linear variable-path acoustic interferometer; for mass density: Pycnometric method
[2] = refractive index (Na D-line) (dimensionless); details: 101.33 kPa, Liquid, Standard Abbe refractometry
[3] = xn = mol fraction of the nth substance listed; details: 101.3 kPa, Liquid; for viscosity: Capillary tube (Ostwald / Ubbelohde) method; for speed of sound: Linear variable-path acoustic interferometer; for mass density: Pycnometric method
[4] = refractive index (Na D-line) (dimensionless); xn = mol fraction of the nth substance listed; details: 101.3 kPa, Liquid, Standard Abbe refractometry

OCCO [1,2-ethanediol]
Details	mass density, 298.15 K [kg/m3]	mass density, 303.15 K [kg/m3]	mass density, 308.15 K [kg/m3]	refractive index, 298.15 K	refractive index, 303.15 K	refractive index, 308.15 K	speed of sound, 298.15 K [m/s]	viscosity, 298.15 K [mPa·s]	viscosity, 303.15 K [mPa·s]	viscosity, 308.15 K [mPa·s]
[1]	1111.3	1107.3	1103.5	–	–	–	1659	12.62	9.618	7.539
[2]	–	–	–	1.4307	1.4269	1.4246	–	–	–	–

OCCO [1,2-ethanediol] + C1COCCO1
x2 = 0
Details	mass density, 298.15 K [kg/m3]	mass density, 303.15 K [kg/m3]	mass density, 308.15 K [kg/m3]	refractive index, 298.15 K	refractive index, 303.15 K	refractive index, 308.15 K	speed of sound, 298.15 K [m/s]	viscosity, 298.15 K [mPa·s]	viscosity, 303.15 K [mPa·s]	viscosity, 308.15 K [mPa·s]
[3]	1111.3	1107.3	1103.5	–	–	–	1659	12.62	9.618	7.539
[4]	–	–	–	1.4307	1.4269	1.4246	–	–	–	–

C1COCCO1 [1,4-dioxane]
Details	mass density, 298.15 K [kg/m3]	mass density, 303.15 K [kg/m3]	mass density, 308.15 K [kg/m3]	refractive index, 298.15 K	refractive index, 303.15 K	refractive index, 308.15 K	speed of sound, 298.15 K	viscosity, 298.15 K [mPa·s]	viscosity, 303.15 K [mPa·s]	viscosity, 308.15 K [mPa·s]
[1]	1027.6	1021.9	1016.2	–	–	–	1347 m/s and 1343 m/s	1.166	1.069	0.984
[2]	–	–	–	1.4201	1.417	1.4143	–	–	–	–

C1COCCO1 [1,4-dioxane] + CCCCN(CCCC)CCCC
x1 = 1
Details	mass density, 298.15 K [kg/m3]	mass density, 303.15 K [kg/m3]	mass density, 308.15 K [kg/m3]	refractive index, 298.15 K	refractive index, 303.15 K	refractive index, 308.15 K	speed of sound, 298.15 K [m/s]	viscosity, 298.15 K [mPa·s]	viscosity, 303.15 K [mPa·s]	viscosity, 308.15 K [mPa·s]
[3]	1027.6	1021.9	1016.2	–	–	–	1343	1.166	1.069	0.984
[4]	–	–	–	1.4201	1.417	1.4143	–	–	–	–

C1COCCO1 [1,4-dioxane] + CCN(CC)CC
x1 = 1
Details	mass density, 298.15 K [kg/m3]	mass density, 303.15 K [kg/m3]	mass density, 308.15 K [kg/m3]	refractive index, 298.15 K	refractive index, 303.15 K	refractive index, 308.15 K	speed of sound, 298.15 K [m/s]	viscosity, 298.15 K [mPa·s]	viscosity, 303.15 K [mPa·s]	viscosity, 308.15 K [mPa·s]
[3]	1027.6	1021.9	1016.2	–	–	–	1343	1.166	1.069	0.984
[4]	–	–	–	1.4201	1.417	1.4143	–	–	–	–

CCCCCC [hexane]
Details	mass density, 298.15 K [kg/m3]	mass density, 303.15 K [kg/m3]	mass density, 308.15 K [kg/m3]	refractive index, 298.15 K	refractive index, 303.15 K	refractive index, 308.15 K	speed of sound, 298.15 K [m/s]	viscosity, 298.15 K [mPa·s]	viscosity, 303.15 K [mPa·s]	viscosity, 308.15 K [mPa·s]
[1]	654.8	649.7	644.8	–	–	–	1083	0.315	0.299	0.286
[2]	–	–	–	1.3728	1.3698	1.367	–	–	–	–

CCCCCC [hexane] + C1COCCO1
x2 = 0
Details	mass density, 298.15 K [kg/m3]	mass density, 303.15 K [kg/m3]	mass density, 308.15 K [kg/m3]	refractive index, 298.15 K	refractive index, 303.15 K	refractive index, 308.15 K	speed of sound, 298.15 K [m/s]	viscosity, 298.15 K [mPa·s]	viscosity, 303.15 K [mPa·s]	viscosity, 308.15 K [mPa·s]
[3]	654.8	649.7	644.8	–	–	–	1083	0.315	0.299	0.286
[4]	–	–	–	1.3728	1.3698	1.367	–	–	–	–

CCCCN(CCCC)CCCC [tributylamine]
Details	mass density, 298.15 K [kg/m3]	mass density, 303.15 K [kg/m3]	mass density, 308.15 K [kg/m3]	refractive index, 298.15 K	refractive index, 303.15 K	refractive index, 308.15 K	speed of sound, 298.15 K [m/s]	viscosity, 298.15 K [mPa·s]	viscosity, 303.15 K [mPa·s]	viscosity, 308.15 K [mPa·s]
[1]	774.4	770.1	766.2	–	–	–	1261	1.36	1.221	1.125
[2]	–	–	–	1.4274	1.4251	1.4226	–	–	–	–

CCN(CC)CC [triethylamine]
Details	mass density, 298.15 K [kg/m3]	mass density, 303.15 K [kg/m3]	mass density, 308.15 K [kg/m3]	refractive index, 298.15 K	refractive index, 303.15 K	refractive index, 308.15 K	speed of sound, 298.15 K [m/s]	viscosity, 298.15 K [mPa·s]	viscosity, 303.15 K [mPa·s]	viscosity, 308.15 K [mPa·s]
[1]	723.1	718.5	713.6	–	–	–	1127	0.363	0.347	0.33
[2]	–	–	–	1.3983	1.3955	1.3926	–	–	–	–
